Biological target: T1, soybean lipoxygenase (lipoxygenase type I-B) (Glycine max, UniProt P08170)
T1 construct: gene LOX1.1
T1 sequence (P08170 1-839): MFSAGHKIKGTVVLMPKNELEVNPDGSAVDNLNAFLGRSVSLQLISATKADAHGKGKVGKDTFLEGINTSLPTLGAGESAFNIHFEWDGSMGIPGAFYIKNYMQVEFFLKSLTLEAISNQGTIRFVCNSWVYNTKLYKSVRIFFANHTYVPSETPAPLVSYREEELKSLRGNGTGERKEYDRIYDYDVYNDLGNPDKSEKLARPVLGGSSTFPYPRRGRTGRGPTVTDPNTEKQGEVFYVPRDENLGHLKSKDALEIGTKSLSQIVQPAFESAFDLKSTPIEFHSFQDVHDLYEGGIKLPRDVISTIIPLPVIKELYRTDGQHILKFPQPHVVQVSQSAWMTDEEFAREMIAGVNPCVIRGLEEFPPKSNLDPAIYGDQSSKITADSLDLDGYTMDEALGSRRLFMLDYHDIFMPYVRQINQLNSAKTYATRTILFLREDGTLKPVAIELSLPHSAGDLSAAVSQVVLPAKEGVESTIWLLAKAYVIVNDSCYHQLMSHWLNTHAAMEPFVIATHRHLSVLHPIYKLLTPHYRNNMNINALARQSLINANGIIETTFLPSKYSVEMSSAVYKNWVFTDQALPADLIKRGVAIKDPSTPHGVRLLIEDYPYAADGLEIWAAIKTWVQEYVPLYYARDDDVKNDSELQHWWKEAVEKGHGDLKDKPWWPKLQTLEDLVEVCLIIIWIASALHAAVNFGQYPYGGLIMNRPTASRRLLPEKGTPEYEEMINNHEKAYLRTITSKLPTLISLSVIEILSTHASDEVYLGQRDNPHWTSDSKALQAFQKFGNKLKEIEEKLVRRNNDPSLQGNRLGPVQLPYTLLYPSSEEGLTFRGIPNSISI
Experiment: linoleate oxidation at […] nm, % inhibition at […] μΜ
Format: biochemical
Settings: read-out: % Inhibition (LOX)

Row | SMILES | inhibition at 100 µM
1 | CCOC(=O)C1CCCN(C(=O)c2cc(C(C)(C)C)c(O)c(C(C)(C)C)c2)C1 (centres unmarked) [compound 1, Ethyl 1-(3,5-di-tert-butyl-4-hydroxybenzoyl)piperidine-3-carboxylate] | 31%
2 | CCOC(=O)C1CCCN(C(=O)/C=C/c2cc(C(C)(C)C)c(O)c(C(C)(C)C)c2)C1 (centres unmarked) [compound 2, (E)-Ethyl 1-(3-(3,5-di-tert-butyl-4-hydroxyphenyl)acryloyl)piperidine-3-carboxylate] | 33%
